Values quoted from earlier work as cited in patent US20200138880A1, “BACTERIA-BASED GEL COMPOSITIONS FOR TOPICAL APPLICATIONS AND USES THEREOF” (PROBIOTICAL S.P.A., priority 2016, published 2020).

Details: well known; free melatonin not bound to globulins

melatonin concentration in saliva as share of its plasma levels: 24%-33%
SMILES: COc1ccc2[nH]cc(CCNC(C)=O)c2c1 [melatonin]
